Reference: patent EP2396329B1, “COMPOUNDS FOR THE TREATMENT OF HEPATITIS C” (priority 2009, dated 2010)
pEC50, pIC50: −log10 of the molar value. Read-outs that look alike come from different tables or passages of the source.

Tests used:
HCV NS5B = target: T1, HCV NS5B (Hepatitis C virus genotype 1b, UniProt Q9WMX2); experiment: HCV NS5B RdRp enzyme assay (standard or modified); assay type: biochemical; details: HCV NS5B RdRp enzyme, genotype 1b; read-out: IC50
T1 construct: The protein was expressed with an 18 amino acid C-terminal truncation to enhance the solubility; made in house; host or cells: E. coli BL21(DE3)
T1 sequence (Q9WMX2 2420-2992): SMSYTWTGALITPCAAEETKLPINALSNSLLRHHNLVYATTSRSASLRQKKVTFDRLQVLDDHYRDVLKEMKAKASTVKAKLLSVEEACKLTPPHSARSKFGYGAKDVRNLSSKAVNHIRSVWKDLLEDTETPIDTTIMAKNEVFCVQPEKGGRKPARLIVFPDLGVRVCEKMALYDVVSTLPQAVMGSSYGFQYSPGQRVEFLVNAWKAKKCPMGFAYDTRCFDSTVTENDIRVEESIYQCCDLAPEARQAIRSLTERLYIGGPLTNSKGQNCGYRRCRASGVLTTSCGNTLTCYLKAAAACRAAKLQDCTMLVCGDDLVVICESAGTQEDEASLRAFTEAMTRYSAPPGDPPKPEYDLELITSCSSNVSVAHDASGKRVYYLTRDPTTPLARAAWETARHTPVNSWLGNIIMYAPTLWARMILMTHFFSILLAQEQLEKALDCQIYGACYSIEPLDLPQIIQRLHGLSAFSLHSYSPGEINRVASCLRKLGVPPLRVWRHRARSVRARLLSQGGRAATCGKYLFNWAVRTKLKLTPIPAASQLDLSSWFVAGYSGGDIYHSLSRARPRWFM
Procedure: HCV NS5B RdRp cloning, expression, and purification. The cDNA encoding the NS5B protein of HCV, genotype 1b, was cloned into the pET21a expression vector. The protein was expressed with an 18 amino acid C-terminal truncation to enhance the solubility. The E. coli competent cell line BL21(DE3) was used for expression of the protein. Cultures were grown at 37 °C for ~ 4 hours until the cultures reached an optical density of 2.0 at 600 nm. The cultures were cooled to 20 °C and induced with I mM IPTG. Fresh ampicillin was added to a final concentration of 50 µg/ml and the cells were grown overnight at 20 °C.
Cell pellets (3L) were lysed for purification to yield 15-24 mgs of purified NS5B. The lysis buffer consisted of 20 mM Tris-HCl, pH 7.4, 500 mM NaCl, 0.5% triton X-100, 1 mM DTT, 1mM EDTA, 20% glycerol, 0.5 mg/ml lysozyme, 10 mM MgCl2, 15 ug/ml deoxyribonuclease I, and Complete TM protease inhibitor tablets (Roche). After addition of the lysis buffer, frozen cell pellets were resuspended using a tissue homogenizer. To reduce the viscosity of the sample, aliquots of the lysate were sonicated on ice using a microtip attached to a Branson sonicator. The sonicated lysate was centrifuged at 100,000 x g for 1hr at 4 °C and filtered through a 0.2 µm filter unit (Corning).
The protein was purified using three sequential chromatography steps: Heparin sepharose CL-6B, polyU sepharose 4B, and Hitrap SP sepharose (Pharmacia). The chromatography buffers were identical to the lysis buffer but contained no lysozyme, deoxyribonuclease I, MgCl2 or protease inhibitor and the NaCl concentration of the buffer was adjusted according to the requirements for charging the protein onto the column. Each column was eluted with a NaCl gradient which varied in length from 5-50 column volumes depending on the column type. After the final chromatography step, the resulting purity of the enzyme is >90% based on SDS-PAGE analysis. The enzyme was aliquoted and stored at -80 °C.
Standard HCV NS5B RdRp enzyme assay. HCV RdRp genotype 1b assays were run in a final volume of 60 µl in 96 well plates (Costar 3912). The assay buffer is composed of 20 mM Hepes, pH 7.5, 2.5 mM KCI, 2.5 mM MgCl2, 1 mM DTT, 1.6 U RNAse inhibitor (Promega N2515), 0.1 mg/ml BSA (Promega R3961), and 2 % glycerol. All compounds were serially diluted (3-fold) in DMSO and diluted further in water such that the final concentration of DMSO in the assay was 2%. HCV RdRp genotype Ib enzyme was used at a final concentration of 28 nM. A polyA template was used at.6 nM, and a biotinylated oligo-dT12 primer was used at 180 nM final concentration. Template was obtained commercially (Amersham 27-4110). Biotinylated primer was prepared by Sigma Genosys. 3H-UTP was used at 0.6 µCi (0.29 µM total UTP). Reactions were initiated by the addition of enzyme, incubated at 30 °C for 60 min, and stopped by adding 25 µl of 50 mM EDTA containing SPA beads (4 µg/µl, Amersham RPNQ 0007). Plates were read on a Packard Top Count NXT after > 1hr incubation at room temperature.
Modified HCV NS5B RdRp enzyme assay. A modified enzyme assay was performed essentially as described for the standard enzyme assay except for the following: The biotinylated oligo dT12 primer was precaptured on streptavidin-coated SPA beads by mixing primer and beads in assay buffer and incubating at room temperature for one hour. Unbound primer was removed after centrifugation. The primer-bound beads were resuspended in 20 mM Hepes buffer, pH 7.5 and used in the assay at final concentrations of 20 nM primer and 0.67 µg/µl beads. Order of addition in the assay: enzyme (14 nM) was added to diluted compound followed by the addition of a mixture of template (0.2 nM), 3H-UTP (0.6 µCi, 0.29 µM), and primer-bound beads, to initiate the reaction; concentrations given are final. Reactions were allowed to proceed for 4 hours at 30° C.
IC50 values for compounds were determined using seven different [I]. […]

HCV replicon = HCV replicon assay (FRET or luciferase readout); assay type: cell-based; details: Hepatitis C virus
Text: FRET Assay Preparation. To perform the HCV FRET screening assay, 96-well cell culture plates were used. The FRET peptide (Anaspec, Inc.) (Taliani et al., Anal. Biochem. 1996, 240, 60-67) contains a fluorescence donor, EDANS, near one end of the peptide and an acceptor, DABCYL, near the other end. The fluorescence of the peptide is quenched by […] resonance energy transfer (RET) between the donor and the acceptor, but as the NS3 protease cleaves the peptide the products are released from RET quenching and the fluorescence of the donor becomes apparent. The assay reagent was made as follows: 5X cell Luciferase cell culture lysis reagent from Promega (#E153A) diluted to 1X with dH2O, NaCl added to 150 mM final, the FRET peptide diluted to 20 µM final from a 2 mM stock.
To prepare plates, HCV replicon cells, with or without a Renilla luciferase reporter gene, were trypsinized and placed into each well of a 96-well plate with titrated test compounds added in columns 3 through 12; columns 1 and 2 contained a control compound (HCV protease inhibitor), and the bottom row contained cells without compound. The plates were then placed in a CO2 incubator at 37 °C.
Assays. Subsequent to addition of the test compounds described above (FRET Assay Preparation), at various times the plate was removed and Alamar blue solution (Trek Diagnostics, #00-100) was added per well as a measure of cellular toxicity. After reading in a Cytoflour 4000 instrument (PE Biosystems), plates were rinsed with PBS and then used for FRET assay by the addition of 30 ul of the FRET peptide assay reagent described above (FRET Assay Preparation) per well. The plate was then placed into the Cytoflour 4000 instrument which had been set to 340 excite/490 emission, automatic mode for 20 cycles and the plate read in a kinetic mode. Typically, the signal to noise using an endpoint analysis after the reads was at least three-fold. Alternatively, after Alamar blue reading, plates were rinsed with PBS, 50 ul of DMEM (high glucose) without phenol red was added and plates were then used for luciferase assay using the Promega Dual-Glo Luciferase Assay System.
Compound analysis was determined by quantification of the relative HCV replicon inhibition and the relative cytotoxicity values. To calculate cytoxicity values, the average Alamar Blue fluorescence signals from the control wells were set as 100% non-toxic. The individual signals in each of the compound test wells were then divided by the average control signal and multiplied by 100% to determine […]. To calculate the HCV replicon inhibition values, an average background value was obtained from the two wells containing the highest amount of HCV protease inhibitor at the end of the assay period. These numbers were similar to those obtained from naïve Huh-7 cells.
The background numbers were then subtracted from the average signal obtained from the control wells and this number was used as 100% activity. The individual signals in each of the compound test wells were then divided by the averaged control values after background subtraction and multiplied by 100% to determine percent activity. EC50 values for a protease inhibitor titration were calculated as the concentration which caused a 50% reduction in FRET or luciferase activity. The two numbers generated for the compound plate, percent cytoxicity and percent activity were used to determine compounds of interest for further analysis.

[1] = HCV replicon cells, FRET or luciferase activity, read-out: EC50

SMILES	pIC50 (HCV NS5B)	pEC50 (HCV replicon; [1])	pEC50 (HCV replicon)
COC[C@@H]1CN(C(=O)c2c(C)nn(C)c2C2=Cc3cc(OC)ccc3-c3c(C4CCCCC4)c4ccc(C(=O)NS(=O)(=O)C(C)C)cc4n3C2)CCO1	6.30 to 9.00	6.30 to 9.00	
COc1ccc2c(c1)C=C(c1c(C(=O)N3CCN(C)CC3)c(C)nn1C)Cn1c-2c(C2CCCCC2)c2ccc(C(=O)NS(=O)(=O)C(C)C)cc21	6.30 to 9.00	6.30 to 9.00	
COc1ccc2c(c1)C=C(c1c(C(=O)N3CCOCC3)c(C(C)C)nn1C)Cn1c-2c(C2CCCCC2)c2ccc(C(=O)NS(=O)(=O)C(C)C)cc21	6.30 to 9.00	6.30 to 9.00	
COc1ccc2c(c1)C=C(c1c(C(=O)N3CC4CC3CO4)cnn1C(C)C)Cn1c-2c(C2CCCCC2)c2ccc(C(=O)NS(=O)(=O)C(C)C)cc21 (stereo not shown)	6.30 to 9.00		6.30 to 9.00
COc1ccc2c(c1)C=C(c1c(C(=O)N3CCN(C)CC3)cnn1C(C)C)Cn1c-2c(C2CCCCC2)c2ccc(C(=O)NS(=O)(=O)C(C)C)cc21	6.30 to 9.00	6.30 to 9.00	
CCOC(=O)c1c(C)nn(CC)c1C1=Cc2cc(OC)ccc2-c2c(C3CCCCC3)c3ccc(C(=O)O)cc3n2C1	6.30 to 9.00	< 6.30	
CCOC(=O)c1c(C)nn(CC)c1C1=Cc2cc(OC)ccc2-c2c(C3CCCCC3)c3ccc(C(=O)NS(=O)(=O)C(C)C)cc3n2C1	6.30 to 9.00	< 6.30	
CCOC(=O)c1c(C)nn(CC)c1C1=Cc2cc(OC)ccc2-c2c(C3CCCCC3)c3ccc(C(N)=O)cc3n2C1	6.30 to 9.00	< 6.30	
CCOC(=O)c1cnn(CC)c1C1=Cc2cc(OC)ccc2-c2c(C3CCCCC3)c3ccc(C(=O)OC(C)(C)C)cc3n2C1	< 6.30	< 6.30	
CCOC(=O)c1cnn(CC)c1C1=Cc2cc(OC)ccc2-c2c(C3CCCCC3)c3ccc(C(=O)O)cc3n2C1	6.30 to 9.00	< 6.30	
CCOC(=O)c1cnn(CC)c1C1=Cc2cc(OC)ccc2-c2c(C3CCCCC3)c3ccc(C(=O)NS(=O)(=O)C(C)C)cc3n2C1	6.30 to 9.00	< 6.30	
CCn1ncc(C(=O)N2C[C@@H](C)O[C@@H](C)C2)c1C1=Cc2cc(OC)ccc2-c2c(C3CCCCC3)c3ccc(C(=O)NS(=O)(=O)C(C)C)cc3n2C1	6.30 to 9.00	6.30 to 9.00	
CCn1nc(C)c(C(=O)N2C[C@@H](C)O[C@@H](C)C2)c1C1=Cc2cc(OC)ccc2-c2c(C3CCCCC3)c3ccc(C(=O)NS(=O)(=O)N(C)C)cc3n2C1	6.30 to 9.00	6.30 to 9.00	
CCn1nc(C)c(C(=O)N2C[C@@H](C)O[C@@H](C)C2)c1C1=Cc2cc(OC)ccc2-c2c(C3CCCCC3)c3ccc(C(=O)NS(=O)(=O)C4CC4)cc3n2C1	6.30 to 9.00	6.30 to 9.00	
COc1ccc2c(c1)C=C(c1nn(C(C)C)c(C)c1C(=O)N1C[C@@H](C)N(C)[C@@H](C)C1)Cn1c-2c(C2CCCCC2)c2ccc(C(=O)NS(=O)(=O)C(C)C)cc21	6.30 to 9.00	6.30 to 9.00	
CCN1CC2CC1CN2C(=O)c1c(C)nn(CC)c1C1=Cc2cc(OC)ccc2-c2c(C3CCCCC3)c3ccc(C(=O)NS(=O)(=O)C(C)C)cc3n2C1 (stereo not shown)	6.30 to 9.00		6.30 to 9.00
CCn1nc(C)c(C(=O)N2CCOCC2)c1C1=Cc2cc(OC)ccc2-c2c(C3CCCCC3)c3ccc(C(=O)NS(=O)(=O)C(C)C)cc3n2C1	6.30 to 9.00	6.30 to 9.00	
COc1ccc2c(c1)C=C(c1c(C(=O)N3C[C@@H](C)O[C@@H](C)C3)nnn1C(C)C)Cn1c-2c(C2CCCCC2)c2ccc(C(=O)NS(=O)(=O)C(C)C)cc21	6.30 to 9.00	6.30 to 9.00	
COc1ccc2c(c1)C=C(c1c(C(=O)N3C[C@@H](C)N(C)[C@@H](C)C3)nnn1C(C)C)Cn1c-2c(C2CCCCC2)c2ccc(C(=O)NS(=O)(=O)C(C)C)cc21	6.30 to 9.00	6.30 to 9.00	
COc1ccc2c(c1)C=C(c1c(C(=O)N3C[C@@H](C)O[C@@H](C)C3)ncn1C(C)C)Cn1c-2c(C2CCCCC2)c2ccc(C(=O)NS(=O)(=O)C(C)C)cc21	6.30 to 9.00	6.30 to 9.00	
COc1ccc2c(c1)C=C(c1c(C(=O)N3CCOCC3)ncn1C(C)C)Cn1c-2c(C2CCCCC2)c2ccc(C(=O)NS(=O)(=O)C(C)C)cc21	6.30 to 9.00	6.30 to 9.00	
COc1ccc2c(c1)C=C(c1c(C(=O)N3C[C@@H](C)N(C)[C@@H](C)C3)ncn1C(C)C)Cn1c-2c(C2CCCCC2)c2ccc(C(=O)NS(=O)(=O)C(C)C)cc21	6.30 to 9.00	6.30 to 9.00	
COc1ccc2c(c1)C=C(c1ncn(C(C)C)c1C(=O)N1C[C@@H](C)O[C@@H](C)C1)Cn1c-2c(C2CCCCC2)c2ccc(C(=O)NS(=O)(=O)N(C)C)cc21	6.30 to 9.00	6.30 to 9.00	
